Data published in ChEMBL document CHEMBL4330123, “Synthesis of 1',2'-methano-2',3'-dideoxynucleosides as potential antivirals” (Bioorg Med Chem Lett, 2019).
Active and inactive are the calls of the source.

Experiments:
Cytomegalovirus = assay: Antiviral activity against CMV assessed as inhibition of viral replication by cell-based assay; type: functional, organism-based
Human alphaherpesvirus 3 = assay: Antiviral activity against VZV assessed as inhibition of viral replication by cell-based assay; type: functional, organism-based
Human alphaherpesvirus 1 = assay: Antiviral activity against HSV1 assessed as inhibition of viral replication by cell-based assay; type: functional, organism-based
Human gammaherpesvirus 4 = assay: Antiviral activity against EBV assessed as inhibition of viral replication by cell-based assay; type: functional, organism-based
A-375 = assay: Antiproliferative activity against human A375 cells up to 100 uM by Celltiter-Glo assay; type: functional, cell-based
HCT cell line = assay: Antiproliferative activity against human HCT cells up to 100 uM by Celltiter-Glo assay; type: functional, cell-based
SW480 = assay: Antiproliferative activity against human SW480 cells up to 100 uM by Celltiter-Glo assay; type: functional, cell-based

Nc1ccn([C@@]23C[C@@H]2C[C@@H](CO)O3)c(=O)n1
inactive: inhibition (Cytomegalovirus) | inhibition (Human alphaherpesvirus 3) | inhibition (Human alphaherpesvirus 1) | inhibition (Human gammaherpesvirus 4) | Activity (A-375) | Activity (HCT cell line) | Activity (SW480)

CC(C)OC(=O)[C@H](C)NP(=O)(OC[C@@H]1C[C@H]2C[C@@]2(n2ccc(N)nc2=O)O1)Oc1ccccc1 (stereo partly drawn)
inactive: inhibition (Cytomegalovirus) | inhibition (Human alphaherpesvirus 3) | inhibition (Human alphaherpesvirus 1) | inhibition (Human gammaherpesvirus 4) | Activity (A-375) | Activity (HCT cell line) | Activity (SW480)

CC(C)OC(=O)[C@H](C)NP(=O)(OC[C@@H]1C[C@H]2C[C@@]2(n2ccc(=O)[nH]c2=O)O1)Oc1ccccc1 (stereo partly drawn)
inactive: inhibition (Cytomegalovirus) | inhibition (Human alphaherpesvirus 3) | inhibition (Human alphaherpesvirus 1) | inhibition (Human gammaherpesvirus 4) | Activity (A-375) | Activity (HCT cell line) | Activity (SW480)

O=c1ccn([C@@]23C[C@@H]2C[C@@H](CO)O3)c(=O)[nH]1
inactive: inhibition (Cytomegalovirus) | inhibition (Human alphaherpesvirus 3) | inhibition (Human alphaherpesvirus 1) | inhibition (Human gammaherpesvirus 4) | Activity (A-375) | Activity (HCT cell line) | Activity (SW480)
